From patent US20250339569A1, “CARBONIC ANHYDRASE IX LIGANDS” (priority 2021, published 2025)
Where two headings read alike, the source gives them in different places. Starred links: 1 amine or outer side, 2 acyl side, 3 side chain; linkers in the order of their positions; H or OH if unused. Positions of bridges follow the written chain, without caps; N, C: chain ends. Non-standard residues stand in square brackets, D forms with d. Residues, ends and D or L forms follow the SMILES beside them. *: point of attachment. X16 = NC(=O)[C@H](CCCCNC(=O)CN1CCN(CC(=O)O)CCN(CC(=O)O)CCN(CC(=O)O)CC1)NC(=O)CCC(=O)NCCCOCCOCCOCCCN*; DOTA = O=C(O)CN1CCN(CC(=O)O)CCN(CC(=O)*)CCN(CC(=O)O)CC1; mXylylene = c1cc(C[*:1])cc(C[*:2])c1; X2 = O=C(CN1CCC(N[*:1])CC1)[*:2]; tBuAla = CC(C)(C)C[C@H](N)C(=O)O; Ac6c = NC1(C(=O)O)CCCCC1; Dap = NC[C@H](N)C(=O)O; Nlys = NCCCCNCC(=O)O; Bn = c1ccc(C*)cc1

Key:
[1] = target: T1, CAIX-expressing human HT-29 colorectal cancer cells (Homo sapiens, UniProt Q16790); assay: FACS binding assay (IC50 determination, competition with tracer 3BP-2776 or 3BP-4149); settings: 4° C., 1 hour, read-out: pIC50 category (activity) (converted)
T1 construct: CAIX-expressing human HT-29 colorectal cancer cells; host or cells: HT-29 human colorectal cancer cells
Method in brief: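 HT-29 cells in FACS buffer (PBS, 1% FCS) at 500.000 cells/ml were exposed to compounds competing with a labelled tracer, with biotinylated compounds detected by 1 μg/mL APC-streptavidin for 30 min on ice. APC/Cy5 median fluorescence was read by flow cytometry and IC50 derived by 4PL fit.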

[2] = target: T2, human carbonic anhydrase IX (hCAIX-Fc) (Homo sapiens, UniProt Q16790); assay: Surface plasmon resonance assay with hCAIX-Fc; format: binding; settings: 25° C.; for Kd: SPR, hCAIX-Fc captured, read-out: pKD category (activity) (converted); for t1/2 category (activity): SPR dissociation half-life, hCAIX-Fc
T2 construct: purchased SinoBliological (Sino Biological) 10107-H02H

[3] = target: T3, NEP (Homo sapiens, UniProt P08473); assay: Proteolytic stability assay against NEP; format: in vitro ADME; settings: human, recombinant soluble human NEP, 100 ng/mL NEP, 10 μM compound, 37°C, read-out: % intact compound remaining after 24 h incubation
T3 construct: Recombinant soluble human NEP; purchased BioTechne, Wiesbaden, Germany
T3 sequence (P08473 52-750 limits assumed): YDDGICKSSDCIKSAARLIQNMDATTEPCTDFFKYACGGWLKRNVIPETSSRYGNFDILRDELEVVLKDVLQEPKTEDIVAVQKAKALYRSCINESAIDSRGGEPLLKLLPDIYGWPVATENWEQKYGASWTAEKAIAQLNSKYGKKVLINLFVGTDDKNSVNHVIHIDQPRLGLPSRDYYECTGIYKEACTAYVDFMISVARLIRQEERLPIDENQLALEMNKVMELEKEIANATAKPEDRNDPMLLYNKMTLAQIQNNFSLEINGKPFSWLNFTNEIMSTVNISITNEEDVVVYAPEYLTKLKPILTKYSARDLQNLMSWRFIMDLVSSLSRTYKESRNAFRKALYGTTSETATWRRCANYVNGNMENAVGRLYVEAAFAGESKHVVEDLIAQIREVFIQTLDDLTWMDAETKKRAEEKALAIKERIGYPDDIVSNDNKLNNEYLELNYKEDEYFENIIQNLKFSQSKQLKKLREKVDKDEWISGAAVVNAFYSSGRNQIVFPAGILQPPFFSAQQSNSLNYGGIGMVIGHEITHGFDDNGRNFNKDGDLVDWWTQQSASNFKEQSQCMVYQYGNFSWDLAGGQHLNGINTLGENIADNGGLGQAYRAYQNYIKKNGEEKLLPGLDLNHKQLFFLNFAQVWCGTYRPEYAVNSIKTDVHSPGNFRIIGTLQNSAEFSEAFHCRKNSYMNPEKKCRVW
Experimental: To assess the stability of compounds against NEP, the compounds were subjected to an in vitro assay based on the protocol described by Edelson et al. (Edelson et al., Pulmonary pharmacology & therapeutics, 2013, 26, 229-238).
Recombinant soluble human NEP (BioTechne, Wiesbaden, Germany) at a concentration of 100 ng/mL was mixed with the compound (10 μM) and a stable internal standard (10 μM) and incubated at 37° C. After several time points, samples were taken and analyzed with LC-MS.
The activity of NEP was examined using a commercially available chromogenic substrate of NEP.

[4] = Plasma stability assay, mouse plasma; settings: for remaining at 4 h, […]: mouse, plasma (K2EDTA); for % intact compound remaining (incubation time): mouse plasma, 37°C, 24 h
[5] = FACS competition on HT-29 cells, Tracer ID 3BP-2776 (10 nM, biotin-labeled)
[6] = FACS binding assay, HT-29 cells, competition with tracer 3BP-2776 (10 nM, biotin-labeled)

| IC50 [1, 5] [nM] | Kd [2] [nM] | remaining at 24 h, 10 μM [3] [%] | remaining at 4 h, […] [4] [%] | t1/2 category (activity) [2] | IC50 [1, 6] [nM] | % intact compound remaining (incubation time) [4] [%] | IC50 ([1]; FACS binding assay, HT-29 cells, competition with tracer 3BP-4149 (3 nM, Cy5-labeled)) [nM] | Compound |
| --- | --- | --- | --- | --- | --- | --- | --- | --- |
| < 10 | < 10 | > 95 | 89 | – | – | – | – | CC(=O)N[C@H](C(=O)N[C@@H](Cc1ccc(O)cc1)C(=O)N[C@H]1CSCc2cccc(c2)CSC[C@@H](C(N)=O)NC(=O)[C@H](C)NC(=O)[C@H](Cc2c[nH]c3ccccc23)NC(=O)[C@H]([C@@H](C)O)NC(=O)[C@H](CC(C)C)NC(=O)[C@H](Cc2c[nH]c3ccccc23)NC(=O)[C@H](CC(=O)O)NC(=O)CN(CCCCNC(=O)CN2CCN(CC(=O)O)CCN(CC(=O)O)CCN(CC(=O)O)CC2)C(=O)[C@H](CCC(=O)O)NC1=O)C(C)C [3BP-3562, Ac-Val-Tyr-[Cys(3MeBn)-Glu-Nlys(DOTA)-Asp-Trp-Leu-Thr-Trp-Ala-Cys]-NH2] (Ac-VYCE[Nlys](DOTA)DWLTWAC-NH2; linker 3-12 via mXylylene) |
| < 10 | < 10 | > 95 | – | A (t1/2>15.0 minutes) | – | – | – | CC(=O)N[C@H](C(=O)N[C@@H](Cc1ccc(O)cc1)C(=O)N[C@H]1CSCc2cccc(c2)CSC[C@@H](C(N)=O)NC(=O)[C@H](C)NC(=O)[C@H](Cc2c[nH]c3ccccc23)NC(=O)[C@H]([C@@H](C)O)NC(=O)[C@H](CC(C)C)NC(=O)[C@H](Cc2c[nH]c3ccccc23)NC(=O)[C@H](CC(=O)O)NC(=O)[C@H]2CCCN2C(=O)[C@H](CCC(=O)O)NC1=O)C(C)C [3BP-3282] (Ac-VYCE[dP]DWLTWAC-NH2; linker 3-12 via mXylylene) |
| < 10 | – | > 95 | > 95 | – | – | – | – | CC(=O)N[C@H](C(=O)N[C@@H](Cc1ccc(O)cc1)C(=O)N[C@H]1CSCc2cccc(c2)CSC[C@@H](C(N)=O)NC(=O)[C@H](CO)NC(=O)[C@H](Cc2c[nH]c3ccccc23)NC(=O)[C@H]([C@@H](C)O)NC(=O)[C@H](CC(C)(C)C)NC(=O)[C@H](Cc2c[nH]c3ccccc23)NC(=O)[C@H](CC(=O)O)NC(=O)[C@H]2CCCN2C(=O)[C@H](CCC(=O)O)NC1=O)C(C)C [3BP-3491] (Ac-VYCE[dP]DW[tBuAla]TWSC-NH2; linker 3-12 via mXylylene) |
| < 10 | – | > 95 | > 95 | – | – | – | – | CC(=O)N[C@H](C(=O)N[C@@H](Cc1ccc(O)cc1)C(=O)N[C@H]1CSCc2cccc(c2)CSC[C@@H](C(N)=O)NC(=O)[C@H](C)NC(=O)[C@H](Cc2c[nH]c3ccccc23)NC(=O)[C@H]([C@@H](C)O)NC(=O)C2(CCCCC2)NC(=O)[C@H](Cc2c[nH]c3ccccc23)NC(=O)[C@H](CC(=O)O)NC(=O)[C@H]2CCCN2C(=O)[C@H](CCC(=O)O)NC1=O)C(C)C [3BP-3503] (Ac-VYCE[dP]DW[Ac6c]TWAC-NH2; linker 3-12 via mXylylene) |
| < 10 | < 10 | > 95 | 95 | C (t1/2 between 2.1 and 5.0 minutes) | – | – | – | CC(=O)N[C@H](C(=O)N[C@@H](Cc1ccc(O)cc1)C(=O)N[C@H]1CSCc2cccc(c2)CSC[C@@H](C(N)=O)NC(=O)[C@H](C)NC(=O)[C@H](Cc2c[nH]c3ccccc23)NC(=O)[C@H]([C@@H](C)O)NC(=O)[C@H](CC(C)C)NC(=O)[C@H](Cc2c[nH]c3ccccc23)NC(=O)[C@H](CC(=O)O)NC(=O)CNC(=O)[C@H](CCC(=O)O)NC1=O)C(C)C [3BP-3058] (Ac-VYCEGDWLTWAC-NH2; linker 3-12 via mXylylene) |
| – | < 10 | – | – | C (t1/2 between 2.1 and 5.0 minutes) | < 10 | 94 | – | CC(C)C[C@@H]1NC(=O)[C@H](Cc2c[nH]c3ccccc23)NC(=O)[C@H](CC(=O)O)NC(=O)[C@H]2CCCN2C(=O)[C@H](CCC(=O)O)NC(=O)[C@@H]2CSCc3cccc(c3)CSC[C@@H](C(N)=O)NC(=O)[C@H](CNC(=O)C[C@H](NC(=O)[C@H](CO)NC(=O)CN3CCN(CC(=O)O)CCN(CC(=O)O)CCN(CC(=O)O)CC3)C(=O)N2)NC(=O)[C@H](Cc2c[nH]c3ccccc23)NC(=O)[C@H]([C@@H](C)O)NC1=O [3BP-4257] ({DOTA}-SDCE[dP]DWLTW[Dap]C-NH2; lactam 2-11; linker 3-12 via mXylylene) |
| – | < 10 | – | – | A (t1/2>15.0 minutes) | – | >95 | < 10 | CC(C)C[C@@H]1NC(=O)[C@H](Cc2c[nH]c3ccccc23)NC(=O)[C@H](CC(=O)O)NC(=O)[C@H]2CCCN2C(=O)[C@H](CCC(=O)O)NC(=O)[C@@H]2CSCc3cccc(c3)CSC[C@@H](C(N)=O)NC(=O)[C@H](CNC(=O)C[C@H](NC(=O)[C@@H](NC(=O)CN3CCN(CC(=O)O)CCN(CC(=O)O)CCN(CC(=O)O)CC3)C(C)C)C(=O)N2)NC(=O)[C@H](Cc2c[nH]c3ccccc23)NC(=O)[C@H]([C@@H](C)O)NC1=O [3BP-4264] ({DOTA}-VDCE[dP]DWLTW[Dap]C-NH2; lactam 2-11; linker 3-12 via mXylylene) |
| – | – | 82 | 95 | – | – | – | – | CC(=O)N[C@H](C(=O)N[C@@H](Cc1ccc(O)cc1)C(=O)N[C@H]1CSCc2cccc(c2)CSC[C@@H](C(=O)NCCCOCCOCCOCCCNC(=O)CCC(=O)N[C@@H](CCCCNC(=O)CN2CCN(CC(=O)O)CCN(CC(=O)O)CCN(CC(=O)O)CC2)C(N)=O)NC(=O)[C@H](CCC(N)=O)NC(=O)[C@H](Cc2c[nH]c3ccccc23)NC(=O)[C@H]([C@@H](C)O)NC(=O)[C@H](CC(C)C)NC(=O)[C@H](Cc2c[nH]c3ccccc23)NC(=O)[C@H](CC(=O)O)NC(=O)CNC(=O)[C@H](CCC(=O)O)NC1=O)C(C)C [3BP-2949] (Ac-VYCEGDWLTWQC-X16; linker 3-12 via mXylylene; N-terminus and C-terminus assumed) |
| < 10 | – | > 95 | > 95 | – | – | – | – | CC(=O)N[C@H](C(=O)N[C@@H](Cc1ccc(O)cc1)C(=O)N[C@H]1CSCc2cccc(c2)CSC[C@@H](C(N)=O)NC(=O)[C@H](CCC(N)=O)NC(=O)[C@H](Cc2c[nH]c3ccccc23)NC(=O)[C@H]([C@@H](C)O)NC(=O)[C@H](CC(C)C)NC(=O)[C@H](Cc2c[nH]c3ccccc23)NC(=O)[C@H](CC(=O)O)NC(=O)CNC(=O)[C@H](CCC(=O)O)NC1=O)C(C)C [3BP-2837] (Ac-VYCEGDWLTWQC-NH2; linker 3-12 via mXylylene) |
| – | < 10 | – | – | A (t1/2>15.0 minutes) | < 10 | 87 | – | CC(C)C[C@@H]1NC(=O)[C@H](Cc2c[nH]c3ccccc23)NC(=O)[C@H](CSCc2ccccc2)NC(=O)[C@H]2CCCN2C(=O)[C@H](CCC(=O)O)NC(=O)[C@@H](NC(=O)[C@H](Cc2ccc(O)cc2)NC(=O)[C@@H](NC(=O)CN2CCC(NC(=O)CN3CCN(CC(=O)O)CCN(CC(=O)O)CCN(CC(=O)O)CC3)CC2)C(C)C)CSCc2cccc(c2)CSC[C@@H](C(N)=O)NC(=O)[C@H](CO)NC(=O)[C@H](Cc2c[nH]c3ccccc23)NC(=O)[C@H]([C@@H](C)O)NC1=O [3BP-4128] ({DOTA}-[X2]VYCE[dP]C(Bn)WLTWSC-NH2; linker 4-13 via mXylylene) |
